Laboratory results reported in patent US10575515B2, “Methods and compositions for preserving tissues and organs” (The General Hospital Corporation, priority 2010, dated 2020).

How the values were obtained:
hepatocytes [1] = experiment: Hepatocyte viability after 60 min incubation with isotonic mixtures of sugars and DMSO; format: cell-based
Protocol: Significant loading of 3OMG can be achieved within 20 minutes (FIG. 37a). The hepatocyte viability when incubated with 3OMG is statistically equal to other saccharides that are not cryopreservative for mammalian cells (FIG. 37b). By comparison, incubation with a common cryopreservative dimethyl sulfoxide (DMSO) under similar conditions reduces viability to 12%.
Hepatocytes can be loaded with 3OMG within 20 minutes in vitro. FIG. 37A illustrates that the kinetics of 3OMG uptake show significant loading of cells with 3OMG within 20 minutes, and even more rapid release with washing; inventors can currently perfuse the livers in stable condition for more than 6 hrs, which is more than sufficient for loading with 3OMG.

hepatocytes [2] = experiment: Cryopreservation of 3OMG-loaded hepatocytes, post-thaw viability by trypan blue exclusion; format: cell-based; settings: Hepatocyte; 200 mM 3OMG, storage in liquid nitrogen up to one week; read-out: post-thaw cell viability (percentage of unfrozen control)
Protocol: Hepatocytes were incubated with 200 mM 3OMG for 60 min and then washed with sugar-free medium for 30 min. Controls were incubated in glucose-free DMEM (no-sugar control), sucrose (non-permeable/non-intracellular control), and D-glucose (permeable but metabolizable control). Following incubation, cells were pelleted by centrifugation for 5 min, supernatant decanted, and resuspended in cold HypoThermosol solution (HTS) with 200 mM 3OMG, 2DG, sucrose, or D-glucose (1×10^6 cell/mL). Cell suspensions were transferred to 1 mL cryogenic vials and cooled at −1° C./min to −6° C., seeded to induce the formation of extracellular ice by application of cold forceps to the exterior of the cryovials, and then cooled at −1° C./min to −80° C., and finally transferred to liquid nitrogen (−196° C.) for storage lasting 1 to 7 days. Following storage, samples were rapidly thawed in a 37° C. water bath for 2 min with gentle agitation. The samples were then diluted 1:10 in D-glucose-free DMEM and incubated for 10 min at 37° C. to wash out the loaded sugar compounds. Samples were then centrifuged, supernatant decanted, and resuspended in culture medium. The viability of the cryopreserved cells was determined immediately after thawing using a trypan blue exclusion assay and expressed as percent of unfrozen control. […]

hepatocytes [3] = experiment: Long-term hepatic functions of cryopreserved hepatocytes in collagen sandwich culture; format: cell-based; settings: albumin, urea, cytochrome P450; 3OMG loaded and frozen
Protocol: Methods: Cells were cultured in a collagen sandwich for […], and media collected daily were analyzed for albumin and urea. All values were normalized by viable cell number (DNA content) and shown as o the means±se (n>9). Urea secretion and resorufin formation were statistically not different (p=0.51 and p=0.3 respectively). Albumin production on days 7-13 were statistically different at p=0.014 (FIG. 39).

rat livers = experiment: Subzero nonfreezing storage of whole rat livers at −5° C., histology (H&E); settings: loaded with 3OMG, 24 hours at −5° C., then NELP with red blood cells
[4] = Supercooling in cryovials at subzero temperatures in selected media formulations; format: physicochemical
Protocol: We tested a variety of preservation media and additives for achieving SZNF storage overnight in a controlled rate freezer. We were able to reach −10° C. without any freezing in supplemented University of Wisconsin (UW) and Hypothermosol (HTS) by proper tuning of the rate of temperature reduction. […] FIG. 48 depicts the temperature profile for successful subzero cooling at −10° C.

[5] = tested on: C3A cells (human liver carcinoma line); experiment: Cryopreservation of C3A cells with troglitazone, post-thaw viability by trypan blue exclusion; format: cell-based; settings: 25 μM troglitazone 30 mins, cryopreservation in liquid nitrogen, vs without
Text: Inventors performed a molecular docking study to identify ligands of PPAR-γ, a transcription factor that is known to have the ability to modulate metabolic rate (see FIG. 34), where inventors identified Troglitazone as a candidate. Inventors also performed preliminary studies to test the effect of supplementation in preservation efficacy. In these initial studies inventors used C3A cells (human liver carcinoma line) and cryopreservation rather than supercooling, due to availability of data to be used as controls. Inventors observed that Troglitazone increased post-thaw viability ˜2.5 fold. We are currently testing Troglitazone and other compounds with primary rat hepatocytes both in cryopreservation and supercooled storage. Nearly confluent C3A cell flasks were trypsinized in PBS solution; cells were sedimented by centrifugation (10 min at […] at 4 degree C.). The medium was replaced by adding 2 mL of HTS and the cell pallets were re-suspended in the HTS by gentle pipetting. The cell samples in 1 mL aliquots were put in 1.5 mL cryovials. The samples were frozen in a controlled rate freezer using a freeze controlled Cryobath (Cryologic, Victoria, Australia) with a CL-8800 temperature controller (Cryologic). A cooling rate of 1 degree C./min was used. The samples were seeded with ice at −4 degrees C. by using a cotton bulb dipped in liquid nitrogen. […]

hepatocytes [6] = experiment: SZNF storage of cells at −4° C. with metabolic supplement, cell viability; format: cell-based; settings: tandem SZNF with metabolic suppressant
Protocol: Inventors are testing a variety of metabolic supplements to enhance viability during preservation. One of the most successful additives inventors tested is magnolol, a biphenolic compound with multiple properties (including tumor suppression and antioxidative capabilities). […] Note that this study was performed early on where stable preservation temperature in plate culture models was −4° C., testing at −10° C. is currently in progress.
The cells were preserved on collagen coated 6 well plates and cultured at 37° C. for one day prior to preservation. Cells were then preserved 48 hours at −4° C.; viability was determined 1 hr after rewarming

With `CO[C@@H]([C@H](O)[C@H](O)CO)[C@@H](O)C=O` [3OMG, 3-O-methyl-glucose] the “toxicity for hepatocytes” value (hepatocytes [1]; concentration range studied, 60 min incubation) was “minimally toxic”, the viability at 200000 µM (hepatocytes [2]) was greater than 50% and the “long-term hepatic functions vs non-frozen hepatocytes” value (hepatocytes [3]) was “similar”. The “histology after storage and NELP perfusion” value (rat livers) was “perfect preservation of microstructure”, the “temperature reached without any freezing” value ([4]; overnight, controlled rate freezer) was −15 °C and the “fraction of the time the protocol is stable” value ([4]; −15° C. in HTS) was “about 50%”.
For `Cc1c(C)c2c(c(C)c1O)CCC(C)(COc1ccc(CC3SC(=O)NC3=O)cc1)O2` (stereo not drawn) [Troglitazone], the “increase of post-thaw viability” value [5] was roughly 2.5 fold.
With `C[S+](C)[O-]` [dimethyl sulfoxide (DMSO), dimethyl sulfoxide, reference compound] the “hepatocyte viability after incubation” value (hepatocytes [1]; incubation 60 min, isotonic mixture) was 12%.
In the case of `C=CCc1ccc(O)c(-c2cc(CC=C)ccc2O)c1` [magnolol, 5,5′-Diallyl-2,2′-biphenyldiol], the “preservation of viability of cells compared to SZNF in the absence of metabolic suppressant agent” value (hepatocytes [6]) is reported as “at least 60%”.
